Among the data in publication PMC12466917, “Evolutionary selection of trimethoprim-resistant dfrA genes in lytic phages affects phage and host fitness during infection” (Science Advances, 2025) are Km values, retold here.

Test [1] deals with DfrA52. The test is described as follows: NADPH oxidation followed at […] nm, nonlinear regression. The test is classed as biochemical, Escherichia phage vB_EcoM_BMB16. To be noted: 100 uM NADPH; dihydrofolate 5-100 uM; 50 mM Tris-HCl, 50 mM KCl, pH 7.5; ~25 C.
Test [2] deals with DfrA43. The test is described as above. The note with it: 100 uM NADPH; dihydrofolate 5-100 uM; 50 mM Tris-HCl, 50 mM KCl, pH 7.5; ~25 C. Type of test: biochemical.

In the case of `Nc1nc2c(c(=O)[nH]1)N=C(CNc1ccc(C(=O)N[C@@H](CCC(=O)O)C(=O)O)cc1)CN2` [dihydrofolate], the Km – broadly, the substrate concentration at which the rate is half of its maximum – in test [1] turned out to be 167 ± 34.8 µM; in test [2], 47.6 ± 21.6 µM.
